Assay results reported in patent US7235715B2, “Virus-resistant transgenic plants expressing L3” (priority 1998, dated 2007).

What was measured:
[1] = tested on: programmed −1 ribosomal frameshifting; assay: Programmed −1 ribosomal frameshifting, lacZ reporter plasmids p−1/p0 in yeast; type: cell-based, Saccharomyces cerevisiae; conditions: various concentrations, four hours
[2] = tested on: M1 killer virus; conditions: cited from earlier work
[3] = tested on: programmed −1 ribosomal frameshifting; conditions: in cells and in in vitro translation extracts (ref. 19); cited from earlier work

| SMILES | effect on programmed −1 ribosomal frameshifting ([1]; mak8-1 strains) | effect on programmed −1 ribosomal frameshifting ([1]; wild-type cells) | loss of the yeast L-A and its satellite dsRNA virus M1 [2] | effect on programmed −1 ribosomal frameshifting efficiencies [3] |
| --- | --- | --- | --- | --- |
| COc1ccc(C[C@H]2NC[C@H](O)[C@H]2OC(C)=O)cc1 [anisomycin] | neither anisomycin nor sparsomycin had any further effect | altered ribosomal frameshifting | promote loss | alter |
| CSC[S@+]([O-])C[C@H](CO)NC(=O)/C=C/c1c(C)[nH]c(=O)[nH]c1=O [sparsomycin] | neither anisomycin nor sparsomycin had any further effect | altered ribosomal frameshifting | promote loss | alter |
